Source: patent US7557133B2, “Caspase inhibitors containing isoxazoline ring” (LG Life Sciences Ltd., priority 2003, dated 2009)
Marks after values point to notes of the source that are not given here.

Experiments:
[1] = Solubility (pH = 7.44 phosphate); assay type: physicochemical
caspase-9 = biological target: T1, caspase-9 (Homo sapiens, UniProt P55211); experiment: Caspase-9 inhibitory effect (fluorescent substrate AcLEHD-AFC); assay type: biochemical; conditions: pH 7.5; 25° C., 150 μM AcLEHD-AFC, 200 nM caspase-9; read-out: Caspase-9 Kobs/[I] (converted)
T1 construct: p10 and p20 subunits (Thornberry, N. A. et al, Nature, 1992, 356, 768) were expressed in E. coli; made in house; host or cells: E. coli
T1 sequence (P55211 1-315 limits assumed): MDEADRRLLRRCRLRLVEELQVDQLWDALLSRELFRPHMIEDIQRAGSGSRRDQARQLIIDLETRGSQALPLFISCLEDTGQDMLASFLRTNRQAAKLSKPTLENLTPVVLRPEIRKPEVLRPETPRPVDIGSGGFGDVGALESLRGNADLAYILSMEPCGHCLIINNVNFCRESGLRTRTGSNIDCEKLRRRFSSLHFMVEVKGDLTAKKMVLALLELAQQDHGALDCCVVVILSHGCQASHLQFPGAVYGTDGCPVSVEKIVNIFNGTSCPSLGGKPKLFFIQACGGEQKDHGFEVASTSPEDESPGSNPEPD
T1 sequence (P55211 331-416 limits assumed): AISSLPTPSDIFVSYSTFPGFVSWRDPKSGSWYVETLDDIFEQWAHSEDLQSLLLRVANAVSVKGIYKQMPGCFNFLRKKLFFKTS
Procedure: Caspase-1 and caspase-8 known as cysteine proteases in the form of α2β2 were expressed, purified, and activated by modifying a method known in Thornberry, N. A. et al, Nature, 1992, 356, 768. Thornberry, N. A. Methods in Enzymology, 1994, 244, 615. Walker, N. P. C. et al. Cell, 1994, 78, 343, and caspase-9 was also purified by a similar method, and the inhibitory activity against them was tested. Briefly describing, p10 and p20 subunits (Thornberry, N. A. et al, Nature, 1992, 356, 768) were expressed in E. coli and purified by nickel column and anionic exchange chromatography to give caspase-1, caspase-8 and caspase-9. The fluorescent substrate AcYVAD-AFC for thus obtained caspase-1, AcDEVD-AFC for caspase-8, and AcLEHD-AFC for caspase-9 were used for determining specific activity of the synthesized inhibitors. […] The inhibitory constants Ki and Kobs of the inhibitors were determined by measuring the reaction velocity with the time lapse using a fluorescent spectrometer and by obtaining the initial rate constant. Ki was calculated from the Lineweaver Burk Plot, and Kobs from the following Equation 1. […]

hepatic fibrosis = experiment: Inhibitory effect against hepatic fibrosis in SD rats (biliary duct ligation, Sirius red staining); assay type: in vivo, rat; conditions: BDL rats, 3 or 10 mg/kg orally twice a day for 1 week
Procedure: Male Spargue-Dawley rats (6 weeks, Korea Biolink) were kept under the conditions of 22 °C, 55% of relative humidity, and light-darkness cycle of 12 hours. Food and water were supplied ad libitum. For the ligation of biliary duct, the rats were anesthetized by inhalation of 1% halothane, abdomen of the rats were cut open, the distal and proximal biliary ducts were ligated, the part between the ligation sites were cut, 2 ml of saline was injected, and sutured. Test compound (Iii) was orally administered in a dosage of 3 mg/kg or 10 mg/kg twice a day. That is, the compound was dissolved in a cosolvent (PEG400:ethanol:Tween80=15:7.5:2.5), diluted with phosphate buffer (pH 7.4) by five times, and administered. To the control group was administered the solution without the test compound. The administration was made for 1 week after 1 week from the ligation of biliary duct. After the administration, the rats were sacrificed. The livers were fixed by 10% neutral formalin and a paraffin section of 5 μm thickness was prepared and stained by 0.1% Sirius red (Direct red 80, Sigma). The tissue section was investigated by an optical microscope to observe the collagen fibers stained in red, and the results are represented in FIG. 1.

caspase-1 = biological target: T2, caspase-1 (Homo sapiens, UniProt P29466); experiment: Caspase-1 inhibitory effect (fluorescent substrate AcYVAD-AFC); assay type: biochemical; conditions: pH 7.5; 25° C., 50 μM AcYVAD-AFC, 10 nM caspase-1; read-out: Caspase-1 Kobs/[I] (converted)
T2 construct: p10 and p20 subunits (Thornberry, N. A. et al, Nature, 1992, 356, 768) were expressed in E. coli; made in house; host or cells: E. coli
T2 sequence (P29466 120-297 limits assumed): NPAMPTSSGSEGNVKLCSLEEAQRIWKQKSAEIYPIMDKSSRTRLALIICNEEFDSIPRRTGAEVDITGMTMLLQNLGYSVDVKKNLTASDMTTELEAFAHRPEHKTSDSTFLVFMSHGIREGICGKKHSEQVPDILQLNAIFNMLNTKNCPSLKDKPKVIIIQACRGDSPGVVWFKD
T2 sequence (P29466 317-404 limits assumed): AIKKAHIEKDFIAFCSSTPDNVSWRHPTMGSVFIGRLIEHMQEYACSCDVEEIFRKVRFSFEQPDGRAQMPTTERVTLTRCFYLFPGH
Procedure: Caspase-1 and caspase-8 known as cysteine proteases in the form of α2β2 were expressed, purified, and activated by modifying a method known in Thornberry, N. A. et al, Nature, 1992, 356, 768. Thornberry, N. A. Methods in Enzymology, 1994, 244, 615. Walker, N. P. C. et al. Cell, 1994, 78, 343, and caspase-9 was also purified by a similar method, and the inhibitory activity against them was tested. Briefly describing, p10 and p20 subunits (Thornberry, N. A. et al, Nature, 1992, 356, 768) were expressed in E. coli and purified by nickel column and anionic exchange chromatography to give caspase-1, caspase-8 and caspase-9. The fluorescent substrate AcYVAD-AFC for thus obtained caspase-1, AcDEVD-AFC for caspase-8, and AcLEHD-AFC for caspase-9 were used for determining specific activity of the synthesized inhibitors. The enzyme reaction was carried out at 25° C. with various concentrations of the inhibitors in a buffer solution containing 50 mM HEPES(pH 7.50), 10% (w/v) sucrose, 0.1% (w/v) CHAPS, 100 mM NaCl, 1 mM EDTA, and 10 mM DTT in the presence of 50 μM AcYVAD-AFC for 10 nM caspase-1, 50 μM AcDEVD-AFC for 2.1 nM caspase-8, and 150 μM AcLEHD-AFC for 200 nM caspase-9. The inhibitory constants Ki and Kobs of the inhibitors were determined by measuring the reaction velocity with the time lapse using a fluorescent spectrometer and by obtaining the initial rate constant. Ki was calculated from the Lineweaver Burk Plot, and Kobs from the following Equation 1. Kobs=−ln(1−At/Aoo)/t Equation 1
At means cleavate rate (%) at time t, and
Aoo means the maximum cleavage rate (%).
Spectra MAX GeminiXS Fluorescent Spectrometer of Molecular Device Co. was used at the excitation wavelength of 405 nm and the emission wavelength of […].

rheumatic arthritis = experiment: Therapeutic effect for rheumatic arthritis in rats (type II collagen); assay type: in vivo, rat
Procedure: Female Lewis rats (7 weeks, Charles River, Japan) were kept under the conditions of 22 °C, 55% of relative humidity, and light-darkness cycle of 12 hours. Food and water were supplied ad libitum. Type II collagen (bovine) was dissolved in 0.05M acetic acid in a concentration of 2 mg/ml at 4[…], and the same amount of Complete Freund's adjuvant was added to emulsify the solution at 4[…]. 0.1 ml of thus emulsified solution was subcutaneously injected into the rattail of the Lewis rats. After 7 days, the emulsified solution was injected again in the same manner. From the date on which the second emulsified solution was injected, vehicle (a mixture of PEG400:ethanol:Tween80=15:7.5:2.5 was diluted by ten times with phosphate buffer) wherein the test compound is dissolved or the vehicle alone was orally administered into the rats every day. On Day 14 from the first injection of the collagen-containing emulsified solution, the right rear foot volume was measured again by plethysmometer (see Table 4). The edema inhibition (%) was determined by the following Equation 3. […]
Further, p-value was calculated by Student t-test from the increased foot volume on Day 14 to confirm the significance.

Question: What does the source list for CC(C)[C@@]1(C(=O)NC(CC(=O)O)C(=O)CF)CC(c2nccc3ccccc23)=NO1 (stereo partly drawn) [Iii, 5-Fluoro-3-({[(5R)-5-isopropyl-3-(1-isoquinolinyl)-4,5-dihydro-5-isoxazolyl]carbonyl}amino)-4-oxopentanoic acid]?
Answer: solubility compared with LB84068MP [1]: improved solubility; kinact/KI (caspase-9): 3330 M⁻¹ s⁻¹; fibrosis by Sirius Red staining (hepatic fibrosis): almost no fibrosis; kinact/KI (caspase-1): 18300 M⁻¹ s⁻¹; Foot volume (ml) Day 14 Average (rheumatic arthritis; 10 mg/kg oral every day, Day 14): 1.394* ml; Foot volume (ml) Day 0 Average (rheumatic arthritis; 10 mg/kg oral group, Day 0): 1.134 mL
